Data as given in ChEMBL document CHEMBL5465560, “Selectivity Literature for EUbOPEN Chemogenomic Library” (2024).

Legend:
[1] = biological target: T1, Dual specificity mitogen-activated protein kinase kinase 5 (Homo sapiens) (UniProt Q13163); assay: Selectivity interaction (KinomeScan (DiscoverX)) EUB0001049a MAP2K5; conditions: at 1 µM
T1 sequence (whole entry): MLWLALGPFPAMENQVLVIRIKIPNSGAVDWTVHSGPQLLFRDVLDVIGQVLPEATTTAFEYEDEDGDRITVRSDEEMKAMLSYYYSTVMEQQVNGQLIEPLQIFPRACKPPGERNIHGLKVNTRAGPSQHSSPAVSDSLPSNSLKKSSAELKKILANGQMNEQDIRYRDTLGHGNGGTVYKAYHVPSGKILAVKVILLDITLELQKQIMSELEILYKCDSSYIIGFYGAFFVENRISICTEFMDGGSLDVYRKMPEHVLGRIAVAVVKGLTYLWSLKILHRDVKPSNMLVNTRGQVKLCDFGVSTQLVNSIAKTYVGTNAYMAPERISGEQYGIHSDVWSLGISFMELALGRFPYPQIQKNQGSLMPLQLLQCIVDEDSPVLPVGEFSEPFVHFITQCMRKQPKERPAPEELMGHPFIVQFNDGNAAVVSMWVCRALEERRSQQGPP

[2] = biological target: T2, Serine/threonine-protein kinase Sgk1 (Homo sapiens) (UniProt O00141); assay: Selectivity interaction (Kinase panel (literature)) EUB0001199aCl SGK1; conditions: at 1 µM
T2 sequence (whole entry): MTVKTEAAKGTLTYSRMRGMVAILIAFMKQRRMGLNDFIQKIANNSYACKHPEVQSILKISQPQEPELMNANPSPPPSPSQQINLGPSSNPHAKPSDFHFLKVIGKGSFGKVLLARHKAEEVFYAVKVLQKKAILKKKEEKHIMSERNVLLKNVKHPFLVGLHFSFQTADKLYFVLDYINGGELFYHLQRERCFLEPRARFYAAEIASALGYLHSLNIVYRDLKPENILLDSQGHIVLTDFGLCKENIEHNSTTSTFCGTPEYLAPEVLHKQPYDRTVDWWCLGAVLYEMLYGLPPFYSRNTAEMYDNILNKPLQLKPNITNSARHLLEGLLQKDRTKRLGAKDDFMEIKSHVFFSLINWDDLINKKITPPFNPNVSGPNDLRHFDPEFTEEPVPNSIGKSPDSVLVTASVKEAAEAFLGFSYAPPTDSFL

[3] = biological target: Histone-lysine N-methyltransferase SUV39H2 (Homo sapiens) (UniProt Q9H5I1); assay: Selectivity interaction (Transferase panel (protein, RNA, and DNA methyltransferases. and EP300 (acetyltransferase))) EUB0000270b SUV39H2
[4] = biological target: Serine/threonine-protein kinase MARK2 (Homo sapiens) (UniProt Q7KZI7); assay: Selectivity interaction (ActivX KiNativ screen (kinase selectivity in THP-1 cell lysates)) EUB0000639a MARK2; type: subcellular; conditions: lysate, at 0.04 µM
[5] = biological target: DNA-dependent protein kinase catalytic subunit (Homo sapiens) (UniProt P78527); assay: Selectivity interaction (ActivX KiNativ screen (kinase selectivity in THP-1 cell lysates)) EUB0000639a PRKDC; type: subcellular; conditions: lysate, at 0.2 µM
[6] = biological target: T3, Histone-arginine methyltransferase CARM1 (Homo sapiens, UniProt Q86X55); assay: Selectivity interaction (Western Blot (dimethylation of BAF155 (BAF155me2a/BAF155) in NCI-H929 cells)) EUB0000255b CARM1; type: cell-based
T3 sequence (Q86X55 whole entry): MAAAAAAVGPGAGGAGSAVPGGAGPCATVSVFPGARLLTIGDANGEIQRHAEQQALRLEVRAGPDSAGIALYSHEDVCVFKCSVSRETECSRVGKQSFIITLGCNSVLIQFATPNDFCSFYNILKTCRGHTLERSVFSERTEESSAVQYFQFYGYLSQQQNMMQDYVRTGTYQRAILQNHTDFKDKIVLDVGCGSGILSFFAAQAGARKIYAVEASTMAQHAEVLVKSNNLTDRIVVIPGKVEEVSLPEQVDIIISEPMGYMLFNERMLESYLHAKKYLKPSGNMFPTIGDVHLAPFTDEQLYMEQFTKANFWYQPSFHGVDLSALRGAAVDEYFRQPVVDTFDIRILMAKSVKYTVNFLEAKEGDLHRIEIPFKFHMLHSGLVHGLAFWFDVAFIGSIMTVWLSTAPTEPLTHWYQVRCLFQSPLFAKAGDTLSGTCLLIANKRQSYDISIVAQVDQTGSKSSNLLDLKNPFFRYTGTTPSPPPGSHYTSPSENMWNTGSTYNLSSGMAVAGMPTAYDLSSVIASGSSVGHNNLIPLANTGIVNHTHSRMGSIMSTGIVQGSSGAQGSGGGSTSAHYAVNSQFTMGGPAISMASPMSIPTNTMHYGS

[7] = biological target: Serine/threonine-protein kinase PLK1 (Homo sapiens, UniProt P53350); assay: Selectivity interaction (KinomeScan (DiscoverX)) EUB0000045b PLK1
[8] = biological target: STE20-like serine/threonine-protein kinase (Homo sapiens, UniProt Q9H2G2); assay: Selectivity interaction (ActivX KiNativ screen (ex vivo kinase selectivity in human PBMCs)) EUB0001619a SLK; type: cell-based; conditions: PBMC, at 1 µM
[9] = test system: Platelet-derived growth factor receptor alpha (Homo sapiens), P16234 [V561D]; assay: (§1) Selectivity interaction (SelectScreen profiling (Invitrogen)) EUB0000607a PDGFRA; conditions: at 2 µM
[10] = test system: Platelet-derived growth factor receptor alpha (Homo sapiens), P16234 [D842V]; assay: as §1; conditions: at 2 µM
[11] = test system: Platelet-derived growth factor receptor alpha (Homo sapiens), P16234 [T674I]; assay: as §1; conditions: at 2 µM
[12] = biological target: Platelet-derived growth factor receptor alpha (Homo sapiens, UniProt P16234); assay: as §1; conditions: at 2 µM
Platelet-derived growth factor receptor alpha, sequence (P16234 whole entry): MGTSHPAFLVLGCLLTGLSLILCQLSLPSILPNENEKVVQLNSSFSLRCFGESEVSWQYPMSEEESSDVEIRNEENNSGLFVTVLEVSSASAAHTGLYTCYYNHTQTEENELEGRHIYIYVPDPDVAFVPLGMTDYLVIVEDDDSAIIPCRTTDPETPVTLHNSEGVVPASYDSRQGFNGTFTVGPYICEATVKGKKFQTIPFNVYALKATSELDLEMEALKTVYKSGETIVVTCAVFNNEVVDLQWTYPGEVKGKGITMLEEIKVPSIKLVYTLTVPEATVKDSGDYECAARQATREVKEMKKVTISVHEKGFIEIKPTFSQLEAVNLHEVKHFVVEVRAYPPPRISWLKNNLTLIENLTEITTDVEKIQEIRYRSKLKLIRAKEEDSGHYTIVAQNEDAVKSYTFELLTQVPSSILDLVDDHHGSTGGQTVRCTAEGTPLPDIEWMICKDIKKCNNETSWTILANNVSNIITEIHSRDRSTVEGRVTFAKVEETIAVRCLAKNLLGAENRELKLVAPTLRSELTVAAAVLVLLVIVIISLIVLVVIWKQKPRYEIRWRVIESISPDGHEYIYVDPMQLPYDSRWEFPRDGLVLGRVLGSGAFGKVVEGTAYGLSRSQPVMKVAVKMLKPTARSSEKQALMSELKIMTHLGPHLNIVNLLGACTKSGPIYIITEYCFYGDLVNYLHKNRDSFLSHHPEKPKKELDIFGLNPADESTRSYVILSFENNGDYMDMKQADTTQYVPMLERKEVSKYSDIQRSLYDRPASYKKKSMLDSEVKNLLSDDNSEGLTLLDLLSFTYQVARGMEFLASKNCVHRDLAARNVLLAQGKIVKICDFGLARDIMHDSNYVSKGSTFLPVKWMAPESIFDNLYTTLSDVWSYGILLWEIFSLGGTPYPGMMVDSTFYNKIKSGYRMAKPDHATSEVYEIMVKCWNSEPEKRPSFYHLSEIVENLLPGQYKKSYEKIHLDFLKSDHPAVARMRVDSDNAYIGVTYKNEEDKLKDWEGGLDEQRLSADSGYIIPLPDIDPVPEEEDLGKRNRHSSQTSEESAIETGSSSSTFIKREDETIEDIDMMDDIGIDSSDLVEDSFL

Histone-lysine N-methyltransferase SUV39H2 (Homo sapiens), sequence (Q9H5I1 whole entry): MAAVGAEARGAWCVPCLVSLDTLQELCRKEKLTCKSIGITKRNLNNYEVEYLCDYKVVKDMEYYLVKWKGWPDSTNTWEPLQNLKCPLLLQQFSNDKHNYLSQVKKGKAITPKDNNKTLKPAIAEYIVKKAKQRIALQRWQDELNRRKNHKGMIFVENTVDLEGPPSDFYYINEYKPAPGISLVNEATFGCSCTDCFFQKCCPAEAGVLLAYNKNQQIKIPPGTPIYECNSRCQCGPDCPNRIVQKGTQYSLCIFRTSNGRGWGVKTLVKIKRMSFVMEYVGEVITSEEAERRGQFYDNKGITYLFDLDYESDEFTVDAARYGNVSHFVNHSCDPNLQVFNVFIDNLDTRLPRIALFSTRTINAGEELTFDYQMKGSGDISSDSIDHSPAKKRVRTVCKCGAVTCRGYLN
Serine/threonine-protein kinase PLK1, sequence (P53350 whole entry): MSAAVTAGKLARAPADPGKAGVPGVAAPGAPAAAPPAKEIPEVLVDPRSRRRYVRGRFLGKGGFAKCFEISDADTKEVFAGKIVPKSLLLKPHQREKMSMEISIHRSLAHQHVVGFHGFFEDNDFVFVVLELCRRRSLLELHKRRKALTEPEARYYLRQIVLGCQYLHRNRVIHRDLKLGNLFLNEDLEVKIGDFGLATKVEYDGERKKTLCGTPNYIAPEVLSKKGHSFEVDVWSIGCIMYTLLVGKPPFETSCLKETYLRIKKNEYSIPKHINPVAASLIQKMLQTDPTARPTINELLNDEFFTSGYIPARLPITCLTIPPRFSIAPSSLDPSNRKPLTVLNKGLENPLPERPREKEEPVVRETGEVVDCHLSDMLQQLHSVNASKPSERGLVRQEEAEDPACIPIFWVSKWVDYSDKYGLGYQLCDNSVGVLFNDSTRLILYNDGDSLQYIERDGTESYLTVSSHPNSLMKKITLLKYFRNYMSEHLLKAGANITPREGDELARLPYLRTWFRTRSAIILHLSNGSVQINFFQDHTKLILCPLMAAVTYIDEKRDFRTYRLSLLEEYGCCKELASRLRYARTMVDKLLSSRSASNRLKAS
Platelet-derived growth factor receptor alpha (Homo sapiens), P16234 [D842V], sequence (P16234 whole entry D842V): as the sequence (P16234 whole entry) above, with D842V counted along it
Serine/threonine-protein kinase MARK2 (Homo sapiens), sequence (Q7KZI7 whole entry): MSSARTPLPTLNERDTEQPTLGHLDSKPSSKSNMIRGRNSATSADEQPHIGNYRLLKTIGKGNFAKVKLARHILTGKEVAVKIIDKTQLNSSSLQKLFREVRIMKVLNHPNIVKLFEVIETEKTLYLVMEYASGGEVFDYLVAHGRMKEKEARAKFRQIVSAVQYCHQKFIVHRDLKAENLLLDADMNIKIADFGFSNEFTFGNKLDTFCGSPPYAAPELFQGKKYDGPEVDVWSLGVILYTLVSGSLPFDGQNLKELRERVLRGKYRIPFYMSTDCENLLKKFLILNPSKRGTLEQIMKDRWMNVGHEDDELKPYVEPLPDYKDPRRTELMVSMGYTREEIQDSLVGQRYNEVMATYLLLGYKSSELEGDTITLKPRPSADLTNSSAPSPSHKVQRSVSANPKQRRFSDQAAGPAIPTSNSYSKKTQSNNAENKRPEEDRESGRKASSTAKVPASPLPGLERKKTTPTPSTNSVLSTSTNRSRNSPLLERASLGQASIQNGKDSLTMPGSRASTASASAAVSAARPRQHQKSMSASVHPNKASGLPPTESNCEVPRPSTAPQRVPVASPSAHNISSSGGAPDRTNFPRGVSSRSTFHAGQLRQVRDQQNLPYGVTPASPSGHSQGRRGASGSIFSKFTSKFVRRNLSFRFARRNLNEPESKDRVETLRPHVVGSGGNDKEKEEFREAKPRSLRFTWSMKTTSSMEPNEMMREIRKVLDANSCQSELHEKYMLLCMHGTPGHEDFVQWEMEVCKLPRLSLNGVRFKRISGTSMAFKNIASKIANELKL
Platelet-derived growth factor receptor alpha (Homo sapiens), P16234 [T674I], sequence (P16234 whole entry T674I): as the sequence (P16234 whole entry) above, with T674I counted along it
Platelet-derived growth factor receptor alpha (Homo sapiens), P16234 [V561D], sequence (P16234 whole entry V561D): as the sequence (P16234 whole entry) above, with V561D counted along it
STE20-like serine/threonine-protein kinase, sequence (Q9H2G2 whole entry, looked up): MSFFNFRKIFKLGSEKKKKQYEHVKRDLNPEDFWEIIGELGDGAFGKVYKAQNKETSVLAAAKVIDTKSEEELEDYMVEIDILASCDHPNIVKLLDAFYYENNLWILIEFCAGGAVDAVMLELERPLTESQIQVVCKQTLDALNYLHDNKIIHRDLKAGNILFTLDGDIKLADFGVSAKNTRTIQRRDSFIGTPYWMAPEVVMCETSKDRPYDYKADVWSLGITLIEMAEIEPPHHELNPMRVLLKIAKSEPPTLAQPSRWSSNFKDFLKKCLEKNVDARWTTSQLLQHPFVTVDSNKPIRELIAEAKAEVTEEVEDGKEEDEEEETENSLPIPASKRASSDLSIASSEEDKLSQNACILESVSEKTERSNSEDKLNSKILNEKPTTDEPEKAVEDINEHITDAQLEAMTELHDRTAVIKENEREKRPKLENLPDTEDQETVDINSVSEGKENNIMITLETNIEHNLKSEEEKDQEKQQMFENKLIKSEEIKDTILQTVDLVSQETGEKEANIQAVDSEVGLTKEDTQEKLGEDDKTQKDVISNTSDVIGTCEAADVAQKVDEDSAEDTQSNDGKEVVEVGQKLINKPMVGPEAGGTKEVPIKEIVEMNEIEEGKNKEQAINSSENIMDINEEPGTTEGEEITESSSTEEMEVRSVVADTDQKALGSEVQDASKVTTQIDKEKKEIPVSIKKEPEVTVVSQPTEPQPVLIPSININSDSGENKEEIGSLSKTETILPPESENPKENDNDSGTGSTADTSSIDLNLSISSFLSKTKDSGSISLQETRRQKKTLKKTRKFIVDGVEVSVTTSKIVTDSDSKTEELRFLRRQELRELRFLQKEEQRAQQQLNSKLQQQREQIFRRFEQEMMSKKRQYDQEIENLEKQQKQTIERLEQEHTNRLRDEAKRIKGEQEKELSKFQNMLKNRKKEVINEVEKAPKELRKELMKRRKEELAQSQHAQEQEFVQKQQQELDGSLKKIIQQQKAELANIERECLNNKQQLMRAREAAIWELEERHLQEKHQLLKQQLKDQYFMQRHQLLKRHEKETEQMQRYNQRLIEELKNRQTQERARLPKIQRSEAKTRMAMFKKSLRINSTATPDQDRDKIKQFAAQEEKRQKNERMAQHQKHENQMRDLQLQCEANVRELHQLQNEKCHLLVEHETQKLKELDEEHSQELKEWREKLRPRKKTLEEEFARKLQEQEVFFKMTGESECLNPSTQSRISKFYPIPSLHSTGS

`COc1cc(Nc2nc(C)cc(-c3cnn4nc(OC)ccc34)n2)cc(C(F)(F)F)c1` was tested. Which % of control [1] did it give?
The % of control was 85%.

`CN1Cc2nccc(-c3cn(C)nc3-c3ccc(F)cc3)c2C1=O` was tested. Which % of inhibition [2] did it give?
The % of inhibition was 2%.

With `Cc1cc(CN)cc(C)c1-c1ncn(C)c1-c1cncn1C` as the compound, how does the % activity ([3]; at 1 µM) read?
The % activity was over 90%.

And the % activity ([3]; at 10 µM)?
The % activity was over 80%.

Which results are given for `CC[C@@H]1[C@H](F)C(=O)N[C@@H]1COc1nccc2cc(C(N)=O)c(OC)cc12` [ZIMLOVISERTIB]?
% of inhibition [4]: -13.3%; % of inhibition [5]: -5.7%

With `COCCN1CCC(c2cc(CN(C)C(=O)c3cccc(Oc4ccccc4)c3)ccn2)CC1` as the compound, how does the IC50 [6] read?
The IC50 was over 3 nM.

What does the source list for `C=CC(=O)Nc1cc(-n2c(=O)ccc3cnc4ccc(-c5ccc(NS(C)(=O)=O)cc5)cc4c32)ccc1C`?
% of control ([7]; at 1 µM): 100%; % of control ([7]; at 10 µM): 100%

`N#Cc1cccc(-c2c[nH]c3ncnc(N4CCOCC4)c23)c1` was tested. Which % of inhibition [8] did it give?
Its % of inhibition is 66%.

Which % of inhibition [9] does the source give for `CNC(=O)Nc1ccc(-c2nc(N3CC4CCC(C3)O4)c3cnn(C4CCC5(CC4)OCCO5)c3n2)cc1` here?
The % of inhibition was 3%.

And the % of inhibition [10]?
The % of inhibition was 4%.

And the % of inhibition [11]?
The % of inhibition was 12%.

And the % of inhibition [12]?
The % of inhibition was 0%.
